{
  "source": "patent US8846066B2",
  "about": "“Methods and related compositions for reduction of fat and skin tightening” (The Regents of the University of California, priority 2004, dated 2014)",
  "key": {"adipocytes": {"system": "adipocytes", "assay": "Adipocyte survival on addition of PC to 4.75% DC", "type": "cell-based", "settings": "for Average / Adipocytes surviving by adding PC to 4.75% DC: 4.75% DC; for Adipocytes surviving by adding PC to 4.75% DC: single wells", "description": "FIG. 9 illustrates survival of adipocytes when phosphatidylcholine is added to 4.75% sodium deoxycholate solution. On y-axis, 1 represents 100% survival. All % concentrations are w/v %. Survival of the cells in the absence of DC and PC is on an average 0.113."}, "primary adipocytes": {"system": "primary adipocytes", "assay": "MTS survival of adipocytes after DC with or without 1% PC", "type": "cell-based, human", "settings": "30 min; for Adipocytes surviving in DC only: MTS OD 490 nm, single wells; for Average (DC only): mean MTS OD 490 nm", "description": "Adipocytes in adipocyte media on a 96-well dish were differentiated at 37° C. in a humidified, 5% CO2 incubator for a week. Media was aspirated and washed with 1×PBS once. Cells were treated with different concentrations of DC (from 0 to 0.5%) with or without 1% PC in 1×PBS. Each treatment was done in triplicates (Table 5). The plates were incubated at 37° C. in a humidified, 5% CO2 incubator for 30 min. The incubated plates were aspirated and washed with 1×PBS.\n10 mL of MTS (3-(4,5-dimethyl-2-yl)-5-(3-carboxymethoxyphenyl)-2-(4-sulfophenyl)-2H-tetrazolium, inner salt) assay solution was prepared (mixed 40 uL MTS (Promega, Madison Wis.) per 1 mL 1×PBS). 100 ul of MTS solution was added to each well of the plates. The plates were incubated at 37° C. incubator (non-humidified) for 120 min. OD was taken with spectrophotometer at 490 nm.\nFIG. 8 illustrates the survival of adipocytes in sodium deoxycholate solution and sodium deoxycholate with 1% phosphatidylcholine solution. The adipocyte cells are primary (i.e., taken freshly from a person) adipocytes, cultured in vitro to maturity before treatment with DC. On y-axis, 1 represents 100% survival when no DC is added. All % concentrations are w/v %. […] The addition of sodium deoxycholate with 1% phosphatidylcholine solution increases the LD50 by ˜5-6 fold."}, "[1]": {"system": "Melanocytes (A375P melanoma cell line)", "assay": "MTS survival of melanocytes after DC with or without 1% PC", "type": "cell-based", "settings": "30 min; for Melanocytes surviving in DC only: MTS OD 490 nm, single wells; for Average (DC only): mean MTS OD 490 nm", "description": "Melanocytes in melanocyte media on a 96-well dish were differentiated at 37° C. in a humidified, 5% CO2 incubator for a week. Media was aspirated and washed with 1×PBS once. Cells were treated with different concentrations of DC (from 0 to 0.5%) with or without 1% PC in 1×PBS. Each treatment was done in triplicates (Table 4). The plates were incubated at 37° C. in a humidified, 5% CO2 incubator for 30 min. The incubated plates were aspirated and washed with 1×PBS.\n10 mL of MTS (3-(4,5-dimethyl-2-yl)-5-(3-carboxymethoxyphenyl)-2-(4-sulfophenyl)-2H-tetrazolium, inner salt) assay solution was prepared (mixed 40 uL MTS (Promega, Madison Wis.) […]). 100 ul of MTS solution was added to each well of the plates. The plates were incubated at 37° C. incubator (non-hunified) for 120 min. OD was taken with spectrophotometer at 490 nm.\nFIG. 7 illustrates the survival of melanocytes in sodium deoxycholate solution and sodium deoxycholate with 1% phosphatidylcholine solution. A375P is a melanoma cell line (P represents poorly metastatic). On y-axis, 1 represents 100% survival when no DC is added. All % concentrations are w/v %. […] The addition of sodium deoxycholate with 1% phosphatidylcholine solution increases the LD50 by ˜5-6 fold."}, "[2]": {"system": "immortalized melanocyte cell lines", "assay": "Killing by DC after pre-incubation with human lipoma fat, series of cell lines", "type": "cell-based", "settings": "0.1% DC pre-incubated with human lipoma fat", "description": "(§1) The experiment was performed on a series of immortalized melanocyte cell lines. Resected human lipomas were ground up, and DC-containing media was mixed with the human fat and agitated for 24 hours. The material was centrifuged to pellet insoluble contents. The supernatants were then added on top of cultured melanocytes. Control was the identical DC-containing media not exposed to the fat chunks. Also, fat alone (no media) was added as a control.\nBut it is evident in this experiment that the presence of the fat limits the killing properties of DC, may be by direct inhibition (like PC) or by sequestration (i.e., into the fat pellet). This can further explain the observation that injection of DC into fat spares the surrounding tissues."}, "A375M": {"system": "A375M", "assay": "Killing by DC after pre-incubation with human lipoma fat, A375M", "type": "cell-based", "description": "as §1"}, "HaCaT cells": {"system": "HaCaT cells", "assay": "Lactate dehydrogenase (LDH) release assay, cell lysis", "type": "cell-based, human", "settings": "for LDH release (OD 490): 30 min at 37° C.", "description": "Cell lysis in response to detergent treatment was determined in HaCaT cells incubated with the reagents at the indicated cell dilutions for 30 min at 37° C. Lysis in cultured cells was measured using a lactate dehydrogenase (LDH) assay and within tissue using calcein, a fluorescent marker retained in cells with intact cell membranes. The LDH assay measures the activity of LDH, which is a cytosolic enzyme released when cells are lysed. Lactate dehydrogenase release was measured by absorbance (at 490 nm) after a 1 hour incubation with the LDH assay as recommended by the manufacturer (CytoTox 96 Non-Radioactive Cytotoxicity Assay, Promega). All studies were performed in triplicate. LDH release is directly proportional to absorbance at 490 nm (OD 490)."}, "CHL": {"system": "CHL", "assay": "Killing by DC after pre-incubation with human lipoma fat, CHL", "type": "cell-based", "description": "as §1"}, "[3]": {"settings": "DC 0.1% media not exposed to fat"}, "[4]": {"settings": "single wells, DC 0.1% media not exposed to fat"}, "[5]": {"settings": "single wells, supernatant of DC 0.1% media agitated 24 hours with human lipoma fat"}, "[6]": {"settings": "supernatant of DC 0.1% media agitated 24 hours with human lipoma fat"}},
  "note": "Several values for one entry are separate records, joined by “and”; a condition that tells them apart may be missing. Equal entries are not always repeated.",
  "data": [
    {"smiles": "C[C@H](CCC(=O)[O-])[C@H]1CC[C@H]2[C@@H]3CC[C@@H]4C[C@H](O)CC[C@]4(C)[C@H]3C[C@H](O)[C@]12C.[Na+]", "note": "[DC, sodium deoxycholate]", "values": [
      {"measurement": "Average", "setting": "adipocytes; PC 0 (w/v %)", "value": 0},
      {"measurement": "Average", "setting": "adipocytes; PC 0.01 (w/v %)", "value": 0},
      {"measurement": "Average", "setting": "adipocytes; PC 0.1 (w/v %)", "value": 0},
      {"measurement": "Average", "setting": "adipocytes; PC 1 (w/v %)", "value": 0},
      {"measurement": "Average", "setting": "adipocytes; PC 5 (w/v %)", "value": 0.009},
      {"measurement": "adipolysis of cultured adipocytes", "setting": "adipocytes; 4.75% sodium deoxycholate, in vitro", "value": 100, "unit": "%"},
      {"measurement": "Adipocytes surviving by adding PC to 4.75% DC", "setting": "adipocytes; PC 0 (w/v %)", "value": 0},
      {"measurement": "Adipocytes surviving by adding PC to 4.75% DC", "setting": "adipocytes; PC 0.01 (w/v %)", "value": 0},
      {"measurement": "Adipocytes surviving by adding PC to 4.75% DC", "setting": "adipocytes; PC 0.1 (w/v %)", "value": 0},
      {"measurement": "Adipocytes surviving by adding PC to 4.75% DC", "setting": "adipocytes; PC 1 (w/v %)", "value": 0},
      {"measurement": "Adipocytes surviving in DC only", "setting": "primary adipocytes; DC 0.01 (w/v %)", "value": "0.067 and 0.133 and 0.13"},
      {"measurement": "Adipocytes surviving in DC only", "setting": "primary adipocytes; DC 0.05 (w/v %)", "value": "0.01 and 0.009 and 0.008"},
      {"measurement": "Adipocytes surviving in DC only", "setting": "primary adipocytes; DC 0.1 (w/v %)", "value": 0},
      {"measurement": "Adipocytes surviving in DC only", "setting": "primary adipocytes; DC 0.5 (w/v %)", "value": 0},
      {"measurement": "LD50 (concentration at which 50% of the fat cells are dead)", "setting": "primary adipocytes; adipocytes, w/v %", "value": "around 0.02%"},
      {"measurement": "Average (DC only)", "setting": "primary adipocytes; DC 0.005 (w/v %)", "value": 0.111},
      {"measurement": "Average (DC only)", "setting": "primary adipocytes; DC 0.01 (w/v %)", "value": 0.131},
      {"measurement": "Average (DC only)", "setting": "primary adipocytes; DC 0.05 (w/v %)", "value": 0.09},
      {"measurement": "Average (DC only)", "setting": "primary adipocytes; DC 0.1 (w/v %)", "value": 0},
      {"measurement": "Average (DC only)", "setting": "primary adipocytes; DC 0.5 (w/v %)", "value": 0},
      {"measurement": "Melanocytes surviving in DC only", "setting": "[1]; DC 0.001 (w/v %)", "value": "0.158 and 0.148 and 0.16"},
      {"measurement": "Melanocytes surviving in DC only", "setting": "[1]; DC 0.005 (w/v %)", "value": "0.128 and 0.109 and 0.103"},
      {"measurement": "Melanocytes surviving in DC only", "setting": "[1]; DC 0.01 (w/v %)", "value": "0.124 and 0.107 and 0.106"},
      {"measurement": "Melanocytes surviving in DC only", "setting": "[1]; DC 0.05 (w/v %)", "value": "0.056 and 0.038 and 0.048"},
      {"measurement": "Melanocytes surviving in DC only", "setting": "[1]; DC 0.1 (w/v %)", "value": "0.009 and 0.014 and 0.016"},
      {"measurement": "Average (DC only)", "setting": "[1]; DC 0.001 (w/v %)", "value": 0.1553},
      {"measurement": "Average (DC only)", "setting": "[1]; DC 0.005 (w/v %)", "value": 0.1133},
      {"measurement": "Average (DC only)", "setting": "[1]; DC 0.01 (w/v %)", "value": 0.1123},
      {"measurement": "Average (DC only)", "setting": "[1]; DC 0.05 (w/v %)", "value": 0.04733},
      {"measurement": "Average (DC only)", "setting": "[1]; DC 0.1 (w/v %)", "value": 0.013},
      {"measurement": "Average (DC only)", "setting": "[1]; DC 0.5 (w/v %)", "value": 0.004},
      {"measurement": "LD50 (concentration at which 50% of the cells are dead)", "setting": "[1]; melanocyte cell line, w/v %", "value": "around 0.04%"},
      {"measurement": "effect of pre-incubation with fat on killing", "setting": "[2]", "value": "appears to reduce killing"},
      {"measurement": "Percentage, DC 0.1%", "setting": "A375M; Control = 1.000, DC 0.1% media not exposed to fat", "value": 0.106},
      {"measurement": "Percentage, DC 0.1% + fat", "setting": "A375M; Control = 1.000, DC 0.1% media pre-incubated with human lipoma fat", "value": 0.662},
      {"measurement": "Average, DC 0.1%", "setting": "A375M; [3]", "value": 0.064},
      {"measurement": "A375M (readings), DC 0.1%", "setting": "A375M; [4]", "value": "0.066 and 0.063"},
      {"measurement": "Actual, DC 0.1%", "setting": "A375M; [4]", "value": "0.066 and 0.063"},
      {"measurement": "A375M (readings), DC 0.1% + fat", "setting": "A375M; [5]", "value": "0.456 and 0.382 and 0.365"},
      {"measurement": "Actual, DC 0.1% + fat", "setting": "A375M; [5]", "value": "0.456 and 0.382 and 0.365"},
      {"measurement": "Average, DC 0.1% + fat", "setting": "A375M; [6]", "value": 0.401},
      {"measurement": "LDH release (OD 490)", "setting": "HaCaT cells; 0.005% dilution", "value": "minimal LDH release"},
      {"measurement": "LDH release (OD 490)", "setting": "HaCaT cells; 0.05% and 0.5%", "value": "progressively more LDH released"},
      {"measurement": "cell lysis compared with PBF", "setting": "HaCaT cells; cell culture", "value": "less cell lysis"},
      {"measurement": "cell lysis (LDH release, FIG. 2b)", "setting": "HaCaT cells; over the tested dilutions", "value": "concentration dependent increase in cell lysis"},
      {"measurement": "Percentage, DC 0.1%", "setting": "CHL; Control = 1, DC 0.1% media not exposed to fat", "value": 0.098},
      {"measurement": "Percentage, DC 0.1% + fat", "setting": "CHL; Control = 1, DC 0.1% media pre-incubated with human lipoma fat", "value": 0.610},
      {"measurement": "Average, DC 0.1%", "setting": "CHL; [3]", "value": 0.065},
      {"measurement": "Actual, DC 0.1%", "setting": "CHL; [4]", "value": "0.064 and 0.066"},
      {"measurement": "CHL (readings), DC 0.1%", "setting": "CHL; [4]", "value": "0.064 and 0.066"},
      {"measurement": "Actual, DC 0.1% + fat", "setting": "CHL; [5]", "value": "0.402 and 0.426 and 0.378"},
      {"measurement": "CHL (readings), DC 0.1% + fat", "setting": "CHL; [5]", "value": "0.402 and 0.426 and 0.378"},
      {"measurement": "Average, DC 0.1% + fat", "setting": "CHL; [6]", "value": 0.402}
    ]}
  ]
}
